Measured values taken from patent US9115117B2, “Substituted piperidine compounds and their use as orexin receptor modulators” (JANSSEN PHARMACEUTICA NV, priority 2013, dated 2015).
Where a name gives a salt, the structure may show the parent alone.

How the values were obtained:
rat orexin 1 receptor = rat orexin 1 receptor (Rattus norvegicus, UniProt P56718); test: Rat orexin 1 receptor radioligand binding; conditions: HEK293 cells stably expressing rat orexin 1 receptor; apparent Ki; read-out: rOX1 Ki
Description: After centrifugation (2K×G, 5 min at 4° C.), the supernatant was aspirated and the pellets frozen and stored at −80° C. […] Each cell pellet from a 15 cm plate was resuspended in 10 mL, stored on ice, and homogenized for 45 sec prior to addition to the reactions. Competition binding experiments in 96 well polypropylene plates were performed using [^3H]-(1-(5-(2-fluoro-phenyl)-2-methyl-thiazol-4-yl)-1-((S)-2-(5-phenyl-(1,3,4)oxadiazol-2-ylmethyl)-pyrrolidin-1-yl)-methanone) (Moraveck Corporation, specific activity=35.3 Ci/mmol), diluted to a 10 nM concentration in PBS (4 nM final). […] The final concentration of DMSO in the reactions is equal to or less than 0.1%. Total and nonspecific binding was determined in the absence and presence of 10 μM almorexant. The total volume of each reaction is 200 μL (20 μL of diluted compounds, 80 μL of [3H]-(1-(5-(2-fluoro-phenyl)-2-methyl-thiazol-4-yl)-1-((S)-2-(5-phenyl-(1,3,4)oxadiazol-2-ylmethyl)-pyrrolidin-1-yl)-methanone) diluted in PBS and 100 μL of the cell suspension). […] The plates were washed 3 times by aspirating 30 ml PBS through the plates. Plates were dried in 55° C. oven for 60 min, scintillation fluid was added, and the radioactivity was counted on a Topcount (Packard).

human orexin 1 receptor = human orexin 1 receptor (Homo sapiens, UniProt O43613); test: Human orexin 1 receptor radioligand binding; conditions: CHO cells stably expressing human orexin 1 receptor; apparent Ki; read-out: hOX1 Ki
Description: The in vitro affinity of the compounds of the invention for the rat/human orexin 1 and human orexin 2 receptors was determined by competitive radioligand binding using [^3H](1-(5-(2-fluoro-phenyl)-2-methyl-thiazol-4-yl)-1-((S)-2-(5-phenyl-(1,3,4)oxadiazol-2-ylmethyl)-pyrrolidin-1-yl)-methanone)(Langmead et al., 2004) and [^3H]EMPA (n-ethyl-2[96-methoxy-pyridin-3-yl)-(toluene-2-sulfonyl)-amino]-N-pyridin-3-ylmethyl acetamide), respectively (Langmead et al., 2004, British Journal of Pharmacology 141:340-346; Malherbe et al., 2004, British Journal of Pharmacology 156:1326-41).
Human Embryonic Kidney 293 cells (HEK293) stably expressing rat orexin 1 receptor (Genebank accession number NM_001525) or Chinese ovary cells (CHO) stably expressing human orexin 1 receptor (Genebank accession number NM_001526) were grown to confluency in DMEM (Hyclone, cat #SH30022), 10% FBS, 1× Pen/Strep, 1× sodium pyruvate, 10 mM HEPES, 600 µg/mL G418 and DMEM/F12 (Gibco, Cat #11039), 10% FBS, 1× Pen/Strep, 600 µg/mL G418 media, respectively on 150 cm^2 tissue culture plates, washed with 5 mM EDTA in PBS (HyClone Dulbecco's Phoshpate Buffered Saline 1× with Calcium and Magnesium, Cat #SH30264.01, hereafter referred to simply as PBS) and scraped into 50 ml tubes. After centrifugation (2K×G, 5 min at 4° C.), the supernatant was aspirated and the pellets frozen and stored at −80° C. Cells were resuspended in PBS in the presence of 1 tablet of protease inhibitor cocktail (Roche, Cat. #11836145001) per 50 mL. Each cell pellet from a 15 cm plate was resuspended in 10 mL, stored on ice, and homogenized for 45 sec prior to addition to the reactions. Competition binding experiments in 96 well polypropylene plates were performed using [^3H]-(1-(5-(2-fluoro-phenyl)-2-methyl-thiazol-4-yl)-1-((S)-2-(5-phenyl-(1,3,4)oxadiazol-2-ylmethyl)-pyrrolidin-1-yl)-methanone) (Moraveck Corporation, specific activity=35.3 Ci/mmol), diluted to a 10 nM concentration in PBS (4 nM final). […] The final concentration of DMSO in the reactions is equal to or less than 0.1%. Total and nonspecific binding was determined in the absence and presence of 10 μM almorexant. The total volume of each reaction is 200 μL (20 μL of diluted compounds, 80 μL of [3H]-(1-(5-(2-fluoro-phenyl)-2-methyl-thiazol-4-yl)-1-((S)-2-(5-phenyl-(1,3,4)oxadiazol-2-ylmethyl)-pyrrolidin-1-yl)-methanone) diluted in PBS and 100 μL of the cell suspension). Reactions were run for 60 min at room temperature and terminated by filtration through GF/C filter plates (PerkinElmer, Cat. #6005174) presoaked in 0.3% polyethylenimine using the cell harvester (PerkinElmer Filtermate). The plates were washed 3 times by aspirating 30 ml PBS through the plates. Plates were dried in 55° C. oven for 60 min, scintillation fluid was added, and the radioactivity was counted on a Topcount (Packard).

human orexin 2 receptor = human orexin 2 receptor (Homo sapiens (Human), UniProt O43614); test: Human orexin 2 receptor radioligand binding ([3H]-EMPA); conditions: HEK293 stably expressing human orexin 2 receptor; [3H]-EMPA; apparent Ki; read-out: hOX2 Ki
Description: After centrifugation (2K×G, 5 min at 4° C.), the supernatant was aspirated and the pellets frozen and stored at −80° C. […] Each cell pellet from a 15 cm plate was resuspended in 10 mL, stored on ice, and homogenized for 45 sec just prior to addition to the reactions. Competition binding experiments in 96 well polypropylene plates were performed using [^3H]-EMPA (Moraveck Corporation, specific activity=29.6 Ci/mmol), diluted to a 5 nM concentration in PBS (2 nM final concentration). […] The final concentration of DMSO in the reactions is equal to or less than 0.1%. Total and nonspecific binding was determined in the absence and presence of […]. The total volume of each reaction is 200 μL (20 μL of diluted compounds, 80 μL of [^3H]-EMPA diluted in PBS and 100 μL of the cell suspension).
The plates were washed 3 times by aspirating 30 ml PBS through the plates. Plates were dried in 55° C. oven for 60 min, scintillation fluid was added, and the radioactivity was counted on a Topcount (Packard).

Chain of human orexin 2 receptor (O43614 whole entry): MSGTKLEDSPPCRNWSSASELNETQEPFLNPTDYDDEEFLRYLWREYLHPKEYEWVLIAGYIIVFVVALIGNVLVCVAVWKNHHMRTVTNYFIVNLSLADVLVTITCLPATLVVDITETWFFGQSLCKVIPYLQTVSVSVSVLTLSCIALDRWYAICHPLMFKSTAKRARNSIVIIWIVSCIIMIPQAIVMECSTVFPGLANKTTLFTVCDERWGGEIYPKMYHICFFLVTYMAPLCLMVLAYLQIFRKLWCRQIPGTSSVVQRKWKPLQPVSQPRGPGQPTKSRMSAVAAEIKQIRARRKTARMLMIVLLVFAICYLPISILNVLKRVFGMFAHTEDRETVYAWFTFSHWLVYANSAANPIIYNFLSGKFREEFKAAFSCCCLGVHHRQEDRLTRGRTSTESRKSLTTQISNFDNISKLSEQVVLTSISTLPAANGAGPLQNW

Ki (rat orexin 1 receptor) [nM]	Ki (human orexin 1 receptor) [nM]	Ki (human orexin 2 receptor) [nM]	Structure (SMILES)
76	71	–	Cc1ccc(N[C@@H]2CCCN(C(=O)c3ccccc3-n3nccn3)[C@H]2C)nc1 (racemic) [Example 37, (±)-trans-(2-(2H-1,2,3-triazol-2-yl)phenyl)(2-methyl-3-((5-methylpyridin-2-yl)amino)piperidin-1-yl)methanone]
–	6710	2050	Cc1cc(N[C@@H]2CCCN(C(=O)c3cc(F)ccc3-c3ncccn3)[C@H]2C)nc(C(F)(F)F)n1 (racemic) [Example 9, (±)-trans-(5-fluoro-2-(pyrimidin-2-yl)phenyl)(2-methyl-3-((6-methyl-2-(trifluoromethyl)pyrimidin-4-yl)amino)piperidin-1-yl)methanone]
9	7	681	Cc1ccc(C(=O)N2CCC[C@@H](Nc3ccc(C(F)(F)F)cn3)[C@@H]2C)c(-n2nccn2)c1 [Example 14, (4-methyl-2-(2H-1,2,3-triazol-2-yl)phenyl)((2S,3R)-2-methyl-3-((5-(trifluoromethyl)pyridin-2-yl)amino)piperidin-1-yl)methanone]
–	1030	290	Cc1cc(C)nc(N[C@@H]2CCCN(C(=O)c3ccc(F)cc3-n3nccn3)[C@H]2C)n1 (racemic) [Example 1, (±)-trans-(3-((4,6-dimethylpyrimidin-2-yl)amino)-2-methylpiperidin-1-yl)(4-fluoro-2-(2H-1,2,3-triazol-2-yl)phenyl)methanone]
82	72	1600	CCOc1ccccc1C(=O)N1CCC[C@@H](Nc2ccc(Br)cn2)[C@@H]1C (racemic) [Example 44, (±)-trans-(3-(5-bromopyridin-2-yl)amino)-2-methylpiperidin-1-yl)(2-ethoxyphenyl)methanone]
–	560	116	Cc1cc(C)nc(N[C@@H]2CCCN(C(=O)c3cc(F)ccc3-n3nccn3)[C@H]2C)n1 (racemic) [Example 5, (±)-trans-(3-((4,6-dimethylpyrimidin-2-yl)amino)-2-methylpiperidin-1-yl)(5-fluoro-2-(2H-1,2,3-triazol-2-yl)phenyl)methanone]
–	78	40	Cc1cc(C)nc(N[C@@H]2CCCN(C(=O)c3ccccc3-n3nccn3)[C@H]2C)n1 (racemic) [Example 4, (±)-trans-(2-(2H-1,2,3-triazol-2-yl)phenyl)(3-((4,6-dimethylpyrimidin-2-yl)amino)-2-methylpiperidin-1-yl)methanone]
–	1060	260	Cc1cc(C)nc(N[C@@H]2CCCN(C(=O)c3c(F)cccc3-n3nccn3)[C@H]2C)n1 (racemic) [Example 3, (±)-trans-(3-((4,6-dimethylpyrimidin-2-yl)amino)-2-methylpiperidin-1-yl)(2-fluoro-6-(2H-1,2,3-triazol-2-yl)phenyl)methanone]
–	462	587	Cc1ccc(-n2nccn2)c(C(=O)N2CCC[C@@H](Nc3cc(C)nc(C(F)(F)F)n3)[C@@H]2C)c1 (racemic) [Example 8, (±)-trans-(5-methyl-2-(2H-1,2,3-triazol-2-yl)phenyl)(2-methyl-3-((6-methyl-2-(trifluoromethyl)pyrimidin-4-yl)amino)piperidin-1-yl)methanone]
–	400	217	Cc1cc(C)nc(N[C@@H]2CCCN(C(=O)c3c(F)cccc3-c3ncccn3)[C@H]2C)n1 (racemic) [Example 2, (±)-trans-(3-((4,6-dimethylpyrimidin-2-yl)amino)-2-methylpiperidin-1-yl)(2-fluoro-6-(pyrimidin-2-yl)phenyl)methanone]
–	315	144	C[C@H]1[C@H](Nc2nccc(C(F)(F)F)n2)CCCN1C(=O)c1c(F)cccc1-n1nccn1 (racemic) [Example 10, (±)-trans-(2-fluoro-6-(2H-1,2,3-triazol-2-yl)phenyl)(2-methyl-3-((4-(trifluoromethyl)pyrimidin-2-yl)amino)piperidin-1-yl)methanone]
55	54	–	C[C@H]1[C@H](Nc2ncc(Cl)cn2)CCCN1C(=O)c1ccccc1-n1nccn1 (racemic) [Example 30, (±)-trans-(2-(2H-1,2,3-triazol-2-yl)phenyl)(3-((5-chloropyrimidin-2-yl)amino)-2-methylpiperidin-1-yl)methanone]
–	29	–	C[C@H]1[C@H](Nc2ncc(C(F)(F)F)cn2)CCCN1C(=O)c1ccccc1-n1nccn1 (racemic) [Example 35, (±)-trans-(2-(2H-1,2,3-triazol-2-yl)phenyl)(2-methyl-3-((5-(trifluoromethyl)pyrimidin-2-yl)amino)piperidin-1-yl)methanone]

Structure (SMILES)	Ki (rat orexin 1 receptor) [nM]	Ki (human orexin 1 receptor) [nM]	Ki (human orexin 2 receptor) [nM]
Cc1ccc(-c2ncco2)c(C(=O)N2CCC[C@@H](Nc3ccc(C(F)(F)F)cn3)[C@@H]2C)n1 [Example 25, ((2S,3R)-2-methyl-3-((5-(trifluoromethyl)pyridin-2-yl)amino)piperidin-1-yl)(6-methyl-3-(oxazol-2-yl)pyridin-2-yl)methanone hydrochloride]	11	19	190
Cc1ccc(C(=O)N2CCC[C@@H](Nc3ncc(C(F)(F)F)cn3)[C@@H]2C)c(-n2nccn2)n1 [Example 69, (6-methyl-2-(2H-1,2,3-triazol-2-yl)pyridin-3-yl)((2S,3R)-2-methyl-3-((5-(trifluoromethyl)pyrimidin-2-yl)amino)piperidin-1-yl)methanone]	70	112	> 10000
Cc1ccc(-c2ncccn2)c(C(=O)N2CCC[C@@H](Nc3ncc(C(F)(F)F)cn3)[C@@H]2C)n1 [Example 78, ((2S,3R)-2-methyl-3-((5-(trifluoromethyl)pyrimidin-2-yl)amino)piperidin-1-yl)(6-methyl-3-(pyrimidin-2-yl)pyridin-2-yl)methanone]	30	57	436
Cc1ccc(-c2ncccn2)c(C(=O)N2CCC[C@@H](Nc3ccc(C(F)(F)F)cn3)[C@@H]2C)n1 (racemic) [Example 23, (±)-trans-(2-methyl-3-((5-(trifluoromethyl)pyridin-2-yl)amino)piperidin-1-yl)(6-methyl-3-(pyrimidin-2-yl)pyridin-2-yl)methanone hydrochloride]	–	23	208
